Reference: patent US20130217122A1, “Expansion of Interferon-Gamma-Producing T-Cells Using Glypican-3 Peptide Library” (The Trustees of the University of Pennsylvania, priority 2012, published 2013)

Key:
CD8+ T-cells [1] = type: cell-based, human
HLA-A2.1 = HLA-A2.1 (Homo sapiens, UniProt P04439, D140Y/D185E/D98H/E176V/E277Q/G131W/G231S/I119V/I121R/I166T/I218V/L300P/L318F/N151K/N90K/P208A/P217A/Q86G/Q94H/R138H/R169H/T345S); assay: T2 binding assay; conditions: 9-10 mer epitopes
CD8+ T-cells [2] = type: cell-based, human; remark: listed apart in the source
[3] = target: T1, human HLA-A2.1 on T2 cells (human); assay: T2 binding assay (HLA-A2 on T2 cells, flow cytometry)
T1 construct: whole, on cells; Empty or peptide-receptive HLA-A2.1 on TAP-deficient T2 cells; also called HLA-A*0201; class I MHC molecules

Molecule | Median pentamer+/CD8+ cells (range) (CD8+ T-cells [1]) | No. with pentamer + cluster (CD8+ T-cells [1]) | No. with pentamer + cluster (%) (CD8+ T-cells [1]) | binding affinity of optimum HLA-A2-binding epitopes (HLA-A2.1) | PD-1 expression in pentamer-positive versus pentamer-negative CD8+ T-cells (CD8+ T-cells [1]) | IFNγ secretion by expanded cells restimulated with cognate antigens (CD8+ T-cells [2]) | expansion of pentamer-specific CD8+ T-cells (CD8+ T-cells [2]) | binding result [3]
CINGVCWTV [NS3 1073, reference compound] | 0.07 (0.03-0.10) % | 2 (29) | 2 (29) % |  |  |  |  | 
ELFDSLFPV [GPC3 169-178, peptide and HLA-A2.1 pentamer loaded with it] | 1.00 (0.20-1.60) % | 5 (63) | 5 (63) % | strong binding affinity |  |  |  | 
FEFVGEFFTD [GPC3 142-151, peptide and HLA-A2.1 pentamer loaded with it] | 0.47 (0.03-0.90) % | 2 (22) | 2 (22) % | strong binding affinity |  |  |  | 
GILGFTFVL [Flu matrix, reference compound] | 0.40 (0.30-1.30) % | 5 (56) | 5 (56) % |  |  |  |  | 
KLLTSMAISV [GPC3 563-572, peptide and HLA-A2.1 pentamer loaded with it] | 0.45 (0.05-1.60) % | 4 (44) | 4 (44) % | strong binding affinity | strong trend |  |  | 
LMLGEFLKL [SurlM2, reference compound] | 0.20 (0.20-0.20) % | 1 (11) | 1 (11) % |  |  |  |  | 
RLQPGLKWV [GPC3 44-52, peptide and HLA-A2.1 pentamer loaded with it] | 0.20 (0.10-0.30) % | 3 (33) | 3 (33) % | strong binding affinity | significantly greater | minimal-to-absent | readily detectable expansion | 
SLTPQAFEFV [GPC3 136-145, peptide and HLA-A2.1 pentamer loaded with it] | 0.70 (0.05-1.30) % | 4 (50) | 4 (50) % | strong binding affinity |  |  |  | 
RLQPGLKWV (Synthetic 9 mer of human glypican-3 (NP-004475); also called GPC3 44-52; GPC344-52) [Glypican-3 44-52 (RLQPGLKWV)] |  |  |  |  |  |  |  | binds
KLLTSMAISV (Synthetic 10 mer of human glypican-3 (NP-004475); also called GPC3 563-572; GPC3563-572) [Glypican-3 563-572 (KLLTSMAISV)] |  |  |  |  |  |  |  | binds
FEFVGEFFTD (Synthetic 10 mer of human glypican-3 (NP-004475); also called GPC3 142-151; GPC3142-151) [Glypican-3 142-151 (FEFVGEFFTD)] |  |  |  |  |  |  |  | binds
ELFDSLFPV (Synthetic 9 mer of human glypican-3 (NP-004475); also called GPC3 169-177; GPC3169-177) [Glypican-3 169-177 (ELFDSLFPV)] |  |  |  |  |  |  |  | binds
